{
  "source": "patent US12391698B2",
  "about": "“Substituted piperidines and piperazines and methods for the treatment of CNS disorders” (SUVEN LIFE SCIENCES LIMITED, priority 2022, dated 2025)",
  "key": {"Male Sprague Dawley rats": {"system": "Male Sprague Dawley rats", "test": "Amphetamine-induced hyperlocomotion", "assay_type": "in vivo, rat", "conditions": "3 mg/kg, p.o., dosed 30 min prior to trial", "experimental": "Male Sprague Dawley rats of 230-280 g body weight were used. Rats were weighed and randomized according to their body weights. Following day, the rats were brought to the laboratory 1 h prior to test. In the morning session, rats were habituated to open field arena for 15 min. Test compound/vehicle and amphetamine/vehicle were administered 30 min prior to the trial. After the post-dose interval, rats were placed in the open field and locomotion was recorded for a period of 15 min. Amphetamine-induced hyperlocomotion models positive symptoms of schizophrenia."}, "[1]": {"target": "T1, recombinant human 5-HT1A receptor (Homo sapiens, UniProt P08908)", "T1 construct": "expressed in transfected cells", "T1 sequence (P08908 1-422)": "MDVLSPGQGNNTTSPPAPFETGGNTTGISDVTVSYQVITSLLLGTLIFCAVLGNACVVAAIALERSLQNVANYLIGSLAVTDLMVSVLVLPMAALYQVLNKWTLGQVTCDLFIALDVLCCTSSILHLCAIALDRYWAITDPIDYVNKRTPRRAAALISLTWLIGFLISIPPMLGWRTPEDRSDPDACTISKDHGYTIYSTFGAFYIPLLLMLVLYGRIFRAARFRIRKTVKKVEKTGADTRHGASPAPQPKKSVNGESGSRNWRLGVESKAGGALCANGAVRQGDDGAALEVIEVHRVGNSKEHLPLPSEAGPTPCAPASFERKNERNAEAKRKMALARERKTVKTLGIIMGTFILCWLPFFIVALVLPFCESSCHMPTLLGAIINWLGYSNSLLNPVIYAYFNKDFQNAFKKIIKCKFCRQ", "test": "Determination of Kb at 5-HT1A receptor, pCRE-Luc reporter gene assay in CHO cells", "assay_type": "cell-based", "experimental": "(§1) A stable CHO cell line expressing recombinant human 5-HT1A receptor and pCRE-Luc reporter system was used for cell-based assay. The assay offers a non-radioactive based approach to determine binding of a compound to GPCRs. In this specific assay, the level of intracellular cAMP which is modulated by activation or inhibition of the receptor is measured. The recombinant cells harbor luciferase reporter gene under the control of cAMP response element.\n(§2) The above cells were grown in 96 well clear bottom white plates in Hams F12 medium containing 10% fetal bovine serum (FBS). Prior to the addition of compounds or standard agonist, cells were serum starved overnight. Increasing concentrations of test compound were added along with 1 μM of U92016A and 1 μM of forskolin in Opti-MEM medium to the cells. The incubation was continued at 37° C. in CO2 incubator for 4 hours. Medium was removed and cells were washed with phosphate buffered saline. The cells were lysed and luciferase activity was measured in a Luminometer. Luminescence units were plotted against the compound concentrations using GraphPad Prism software. EC50 values of the compounds were defined as the concentration required in reducing the luciferase activity by 50%. The Kb values were calculated by feeding the concentration of agonist used in the assay and its EC50 value in the same software."}, "[2]": {"target": "T2, recombinant human 5-HT2A receptor (Homo sapiens, UniProt P28223)", "T2 construct": "expressed in transfected cells", "T2 sequence (P28223 whole entry)": "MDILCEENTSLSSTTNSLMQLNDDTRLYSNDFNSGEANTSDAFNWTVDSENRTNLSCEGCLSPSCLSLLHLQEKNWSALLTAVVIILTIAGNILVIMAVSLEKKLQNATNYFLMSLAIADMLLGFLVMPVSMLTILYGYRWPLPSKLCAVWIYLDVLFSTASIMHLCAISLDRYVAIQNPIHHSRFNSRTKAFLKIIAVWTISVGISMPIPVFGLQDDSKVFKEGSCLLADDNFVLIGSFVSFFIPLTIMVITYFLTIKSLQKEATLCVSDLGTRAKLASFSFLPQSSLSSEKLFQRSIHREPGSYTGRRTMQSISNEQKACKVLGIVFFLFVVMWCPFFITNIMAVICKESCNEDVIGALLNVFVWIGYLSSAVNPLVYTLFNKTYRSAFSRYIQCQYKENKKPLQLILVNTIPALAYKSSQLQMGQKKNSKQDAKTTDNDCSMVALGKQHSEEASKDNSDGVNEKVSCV", "test": "Determination of Kb at 5-HT2A receptor, pCRE-Luc reporter gene assay in CHO cells", "assay_type": "cell-based", "experimental": "as §1, with “human 5-HT2A” for “human 5-HT1A”, “receptor was” for “receptor is”\nas §2, with “serotonin” for “U92016A and 1 μM of forskolin”"}, "[3]": {"system": "Dopamine and norepinephrine levels in prefrontal cortex and striatum", "test": "Modulation in dopamine and norepinephrine levels in prefrontal cortex and striatum (microdialysis)", "assay_type": "in vivo", "conditions": "male Wistar rats; for mean maximum increase in dopamine levels in prefrontal cortex / mean maximum increase in norepinephrine levels in prefrontal cortex: s.c. (so in the source), basal = 100%"}, "Male CD1 mice": {"system": "Male CD1 mice", "test": "Resident-intruder task", "assay_type": "in vivo, mouse", "conditions": "3.0 mg/kg, p.o., 30 min prior to trial", "experimental": "Male CD1 mice of weight 20-35 g (Resident) and 15-25 g (Intruder) were used. Resident mice were habituated individually with an ovariectomized female mouse in each cage and intruders were habituated socially for 1 week. β-estradiol at a dose of 0.2 mg/kg, s.c. was administered to female mice during habituation. On day 1 and day 2, intruder was exposed to resident mouse in resident's home cage for a period of 10 min and duration of attack was measured. During this exposure, female mouse were removed from the cage. On day 4 from initial exposure, animals were randomized based on their duration of attacking and administered respective treatments. Test compound and vehicle were administered 30 min prior to the trial. After post dose interval resident mice were exposed to same intruder for 10 min and duration of attack was recorded. Resident intruder task models aggressive behavior."}},
  "note": "Where a name gives a salt, the structure may show the parent alone.",
  "data": [
    {"smiles": "O=C1C[C@@H]2CCCN2C(=O)N1CCCCN1CCN(c2nsc3ccccc23)CC1", "note": "[Example 2, 2-[4-(4-Benzo[d]isothiazol-3-yl-piperazin-1-yl)-butyl]-tetrahydro-pyrrolo[1,2-c]pyrimidine-1,3-dione oxalate]", "values": [
      {"measurement": "Inference, amphetamine antagonism (hyperlocomotion)", "setting": "Male Sprague Dawley rats", "value": "Active"},
      {"measurement": "agonist activity at human recombinant 5-HT1A receptor", "setting": "[1]; pCRE-Luc reporter gene assay", "value": "no detectable agonist activity"},
      {"measurement": "antagonistic activity at human recombinant 5-HT1A receptor", "setting": "[1]; pCRE-Luc reporter gene assay", "value": "antagonistic activity"},
      {"measurement": "Kb", "setting": "[1]; with 1 μM U92016A and 1 μM forskolin, luciferase readout", "value": 2.3, "unit": "nM"},
      {"measurement": "agonist activity at human recombinant 5-HT2A receptor", "setting": "[2]; pCRE-Luc reporter gene assay", "value": "no detectable agonist activity"},
      {"measurement": "antagonistic activity at human recombinant 5-HT2A receptor", "setting": "[2]; pCRE-Luc reporter gene assay", "value": "antagonistic activity"},
      {"measurement": "Kb", "setting": "[2]; with 1 μM serotonin, luciferase readout", "value": 8, "unit": "nM"},
      {"measurement": "mean maximum increase in dopamine levels in prefrontal cortex", "setting": "[3]; 3 mg/kg", "value": "326±24", "unit": "%"},
      {"measurement": "mean maximum increase in norepinephrine levels in prefrontal cortex", "setting": "[3]; 3 mg/kg", "value": "187±30", "unit": "%"},
      {"measurement": "mean maximum increase in dopamine levels in prefrontal cortex", "setting": "[3]; 10 mg/kg", "value": "458±91", "unit": "%"},
      {"measurement": "mean maximum increase in norepinephrine levels in prefrontal cortex", "setting": "[3]; 10 mg/kg", "value": "368±99", "unit": "%"},
      {"measurement": "change in dopamine levels in striatum", "setting": "[3]", "value": "no change"},
      {"measurement": "Inference, resident intruder task (duration of attack)", "setting": "Male CD1 mice", "value": "Active"}
    ]}
  ]
}
